These are literature values, as cited in patent US9326991B2, “Nucleotide prodrug compounds and use” (LIGAND PHARMACEUTICALS INC., priority 2012, dated 2016).

The half-life is the time in which the quantity being followed falls by half.

For this data set the following is noted: human subjects.

For `NC(=O)c1ncn([C@@H]2O[C@H](CO)[C@@H](O)[C@H]2O)n1` [Ribavirin, 1-((2R,3R,4S,5R)-3,4-dihydroxy-5-(hydroxymethyl)oxolan-2-yl)-1H-1,2,4-triazole-3-carboxamide], the half-life is recorded as about 12 days.
